The test system of assay [1] is Stahylococcus aureus ATCC 12600. Put plainly: micro-dilution assay (MBC, LD90). In kind it is cell-based, Staphylococcus aureus. On the procedure: The anti-bacterial activity of hβD2 was tested by a micro-dilution assay. Bacteria and fungi were streaked from a glycerol stock onto a Brain Heart Infusion (BHI) agar plate (3.7% w/v BHI Bouillon, 1.5% w/v Agar), grown overnight at 37° C. and 30° C., respectively and subsequently used to inoculate 40 ml of 3.7% w/v BHI Bouillon without any antibiotics in 100 ml flasks. Fresh cells were harvested by centrifugation at 16000 rpm for 10 min and washed twice with 10 mM sodium phosphate buffer, pH 7.2. The optical density was adjusted to 10^4 cells/ml. For anti-bacterial testing hβD2 was incubated in one well of a microtiter plate containing 100 μl of the bacterial suspension. Therefore, ten microlitres of hβD2 solution with a range of final concentrations tested from 0.0125 up to and including 100 mg/l was added to the bacterial suspension and incubated at 37° C. and 30° C., respectively for 2 h before colony forming units were determined. Colony forming units (CFU) were determined after plating 100 μl of a 1:100 dilution of the bacterial suspension on petri dishes with BHI medium and incubating them overnight at 37° C. For every group of the hβD2 added samples and the controls, 5 independent anti-bacterial assays were performed. A control (NC) of bacterial growth was examined for every independent assay. […]
On the technique in general: Dilution methods test growth across graded concentrations, often in twofold steps.

In assay [2] the test system is Escherichia coli strain DB3.1. The experiment in a line: microdilution assay of hβD2 coated biopolymers (percentage killing). The format is cell-based. On the procedure: Microdilution assay. In the microdilution assay the microorganisms were exposed to a potential bio-active substance in liquid surrounding, thus free to move. This potential bio-active substance was either homogenously dispersed in the liquid surrounding by active mixing at the beginning of the tests or could spread out of the sample during incubation time. The bioactivity was measured in percentage killing, wherein the number of colony forming units (CFU) in a control without test substance was set to 0% killing and a reduction in the cell number to zero was set to 100% killing.
Fresh cells were harvested by centrifugation at 1600 rpm for 10 min, the supernatant was removed and the cell pellet was resuspended in 5 ml 10 mM sodium phosphate buffer. This procedure was repeated twice. The optical density was adjusted to OD600 of 0.500 with 10 mM sodium phosphate buffer. 100 μl of the bacterial suspension was pipetted in one well of a microtiter plate without optimized surface. 10 μl test substance or test sample was added. In case of a test substance, the mixture was homogenized by absorbing the mixture several times with a pipette. The microtiter plate is then closed with parafilm and incubated at 37° C. for 2 h. After incubation the substances in the wells were mixed by a pipette. […] For evaluation, the grown colonies were counted.
The microdilution assay facilitates the examination of the hβD2 release kinetics of the biopolymers and thus allowed conclusions on what amounts of hβD2 in which time could be released. For comparing on evaluation of the assay the effect of directly applied hβD2 amounts with the effect of hβD2 amounts applied on biopolymers, the achieved percentage killing of bacteria was compared to the killing rate of the hβD2 standard series in the microdilution assays.
The collagen scaffolds and polylactide matrices were examined in the microdilution assay regarding their hβD2 release kinetics. Since the incubation time of the samples in the bacterial suspension is limited, the samples were stored at −25° C. after the test and until completion of a further assay. The thawed samples were then used in a new assay and were incubated again.

“And” between values parts separate entries of the source, which are not always exact repeats. Identical values can stand only once. Where no end group is shown, it is not given here.

For the substance “human β-defensin-2 (GIGDPVTCLKSGAICHPVFCPRRYKQIGTCGLPGTKCCKKP; ends and bridges not checked; cysteine pairing not given here) [hβD2, recombinant hβD2]”, the “LD 90 = μg/ml 90% killing” value in assay [1] stood at 25 µg/mL. The “MBC = μg/ml 99.9% killing” value in assay [1] amounted to 100 µg/mL. Moreover, the bacteria killing was determined as 18% in assay [2] (2 μg hβD2 on collagen scaffold, after 13 hours); 89% in assay [2] (25 μg hβD2 on polylactide matrix coated with collagen and chondroitin sulphate, first two hours); 100% in assay [2] (25 μg hβD2 on polylactide matrix coated with collagen, first two hours); 100% in assay [2] (25 μg hβD2 on uncoated polylactide matrix, first two hours). Also, the killing rate in assay [2] (2 μg hβD2 on collagen scaffold, first 2 hours) is listed as at most 36%; in assay [2] (4 μg hβD2 and 5 μg chondroitin sulphate on collagen scaffold, 0-2 hours), 54%; in assay [2] (4 μg hβD2 on collagen scaffold impregnated with 20 μl of 0.1 M L-glutamic acid solution, 0-2 hours) it was 53%; in assay [2] (4 μg hβD2 on collagen scaffold impregnated with 20 μl of 0.1 M L-lysine solution, 0-2 hours) it was 11%; in assay [2] (4 μg hβD2 on collagen scaffold treated with 5 μg BSA, 0-2 hours), 98%; in assay [2] (4 μg hβD2 on collagen scaffold treated with 60 μg poly-L-glutamic acid, 0-2 hours), 23%. The killing rate is 89% and 86% in assay [2] (4 μg hβD2 on collagen scaffold without pre-treatment, first 2 hours); 22% in assay [2] (30 μg hβD2 on collagen scaffold, after 17 hours); 86% in assay [2] (30 μg hβD2 on collagen scaffold, first 5 hours). The killing in assay [2] (4 μg hβD2 and 20 μg spermidine on collagen scaffold, 0-2 hours) was 19%; in assay [2] (4 μg hβD2 on collagen scaffold pre-treated with 10 μl of 0.1% gelatine solution, 0-2 hours) it was 94%; in assay [2] (4 μg hβD2 on collagen scaffold, 17th hour) it was 25%; in assay [2] (30 μg hβD2 on collagen scaffold, after 13 hours) it was 29%. Further, in assay [2] (4 μg hβD2 on collagen scaffold treated with 5 μg HAS, 0-2 hours), the “killing of the bacteria” value is 100%. Further, in assay [2] (4 μg hβD2 on collagen scaffold, after 20 hours), the “bio-activity of the scaffolds” value was “depleted”. In addition, the “killing (given as release amount in %)” value in assay [2] (4 μg hβD2 on collagen scaffold, first 5 hours) worked out at 38%; in assay [2] (125 μg hβD2 on collagen scaffold, after 5 hours), 93%. Also, the “activity of the scaffold” value in assay [2] (30 μg hβD2 on collagen scaffold, after 20 hours) was “inactive”.

The values above are taken from US20110311601A1, “ANTIMICROBIAL MEDICAL DEVICES” (priority 2010, published 2011).
